The values that follow come from patent US9234018B2, “Compositions and methods for the treatment of VprBP-related cancers” (University of Southern California, priority 2013, dated 2016).

The term IC50 denotes the concentration needed to halve the response being measured. A higher IC50 goes with weaker potency.

One test concerns the target RSK2 (Homo sapiens, UniProt P51812). As to the kind of experiment: Kinase selectivity panel. It is filed as biochemical.
The next test has as its target CHK1 (Homo sapiens, UniProt O14757). As to the kind of experiment: Kinase selectivity panel. It counts as biochemical.
A further test deals with ATM (Homo sapiens, UniProt Q13315). Briefly: Kinase selectivity panel. It is filed as biochemical.
In a further test the target is CSK1E (Homo sapiens, UniProt P49674). Briefly: Kinase selectivity panel. It is filed as biochemical.
Test [1] relates to H2AT120p and VprBP at target genes in DU145 cells. As to the kind of experiment: Chromatin immunoprecipitation (ChIP) at VprBP target genes. It counts as cell-based, human. The following applies: B32B3 1 mM. The method, then:
Mock-depleted or VprBP-depleted DU145 cells were grown to 70-80% confluence, cross-linked with 1% formaldehyde for 10 min, and processed for ChIP as recently described (Kim, K. et al. (2012) Mol. Cell Biol. 32:783-796). […] All samples were run in triplicate and results were averaged. Sequences of the primers used for quantitative real time PCR (qPCR) are as follows: […]

The target in another test is RSK3 (Homo sapiens, UniProt Q15349). Briefly: Kinase selectivity panel. It counts as biochemical.
Another test concerns the target AURKB (Homo sapiens, UniProt Q96GD4). Briefly: Kinase selectivity panel. It counts as biochemical.
For the next test, the target named is CSNK1D (Homo sapiens, UniProt P48730). Briefly: Kinase selectivity panel. It counts as biochemical.
The next test deals with PKM2 (Homo sapiens, UniProt P14618). As to the kind of experiment: Kinase selectivity panel. It counts as biochemical.
For a further test, the target named is EEF2K (Homo sapiens, UniProt O00418). Briefly: Kinase selectivity panel. It counts as biochemical.
The target in a further test is LCK (Homo sapiens, UniProt P06239). Briefly: Kinase selectivity panel. It counts as biochemical.

Sequence of RSK3 (Q15349 whole entry): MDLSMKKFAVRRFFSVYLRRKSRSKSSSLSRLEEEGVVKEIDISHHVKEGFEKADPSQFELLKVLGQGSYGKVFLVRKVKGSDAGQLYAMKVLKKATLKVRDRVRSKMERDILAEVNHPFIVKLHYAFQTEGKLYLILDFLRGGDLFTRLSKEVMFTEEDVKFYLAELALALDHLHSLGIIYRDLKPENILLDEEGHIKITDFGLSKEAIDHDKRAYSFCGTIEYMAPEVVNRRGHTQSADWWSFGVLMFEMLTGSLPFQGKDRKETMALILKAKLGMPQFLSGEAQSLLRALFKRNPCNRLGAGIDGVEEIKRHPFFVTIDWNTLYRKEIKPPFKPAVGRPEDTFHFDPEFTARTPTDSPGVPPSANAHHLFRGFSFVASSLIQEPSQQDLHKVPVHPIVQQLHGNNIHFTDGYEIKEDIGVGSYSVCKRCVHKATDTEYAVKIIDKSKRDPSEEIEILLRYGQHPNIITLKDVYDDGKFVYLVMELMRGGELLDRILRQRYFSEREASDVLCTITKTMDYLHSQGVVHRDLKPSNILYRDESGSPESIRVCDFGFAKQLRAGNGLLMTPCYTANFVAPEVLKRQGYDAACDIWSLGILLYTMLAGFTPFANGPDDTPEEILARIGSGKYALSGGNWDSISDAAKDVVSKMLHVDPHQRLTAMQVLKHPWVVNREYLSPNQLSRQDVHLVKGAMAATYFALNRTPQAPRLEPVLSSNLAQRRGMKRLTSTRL
Sequence of ATM (Q13315 whole entry): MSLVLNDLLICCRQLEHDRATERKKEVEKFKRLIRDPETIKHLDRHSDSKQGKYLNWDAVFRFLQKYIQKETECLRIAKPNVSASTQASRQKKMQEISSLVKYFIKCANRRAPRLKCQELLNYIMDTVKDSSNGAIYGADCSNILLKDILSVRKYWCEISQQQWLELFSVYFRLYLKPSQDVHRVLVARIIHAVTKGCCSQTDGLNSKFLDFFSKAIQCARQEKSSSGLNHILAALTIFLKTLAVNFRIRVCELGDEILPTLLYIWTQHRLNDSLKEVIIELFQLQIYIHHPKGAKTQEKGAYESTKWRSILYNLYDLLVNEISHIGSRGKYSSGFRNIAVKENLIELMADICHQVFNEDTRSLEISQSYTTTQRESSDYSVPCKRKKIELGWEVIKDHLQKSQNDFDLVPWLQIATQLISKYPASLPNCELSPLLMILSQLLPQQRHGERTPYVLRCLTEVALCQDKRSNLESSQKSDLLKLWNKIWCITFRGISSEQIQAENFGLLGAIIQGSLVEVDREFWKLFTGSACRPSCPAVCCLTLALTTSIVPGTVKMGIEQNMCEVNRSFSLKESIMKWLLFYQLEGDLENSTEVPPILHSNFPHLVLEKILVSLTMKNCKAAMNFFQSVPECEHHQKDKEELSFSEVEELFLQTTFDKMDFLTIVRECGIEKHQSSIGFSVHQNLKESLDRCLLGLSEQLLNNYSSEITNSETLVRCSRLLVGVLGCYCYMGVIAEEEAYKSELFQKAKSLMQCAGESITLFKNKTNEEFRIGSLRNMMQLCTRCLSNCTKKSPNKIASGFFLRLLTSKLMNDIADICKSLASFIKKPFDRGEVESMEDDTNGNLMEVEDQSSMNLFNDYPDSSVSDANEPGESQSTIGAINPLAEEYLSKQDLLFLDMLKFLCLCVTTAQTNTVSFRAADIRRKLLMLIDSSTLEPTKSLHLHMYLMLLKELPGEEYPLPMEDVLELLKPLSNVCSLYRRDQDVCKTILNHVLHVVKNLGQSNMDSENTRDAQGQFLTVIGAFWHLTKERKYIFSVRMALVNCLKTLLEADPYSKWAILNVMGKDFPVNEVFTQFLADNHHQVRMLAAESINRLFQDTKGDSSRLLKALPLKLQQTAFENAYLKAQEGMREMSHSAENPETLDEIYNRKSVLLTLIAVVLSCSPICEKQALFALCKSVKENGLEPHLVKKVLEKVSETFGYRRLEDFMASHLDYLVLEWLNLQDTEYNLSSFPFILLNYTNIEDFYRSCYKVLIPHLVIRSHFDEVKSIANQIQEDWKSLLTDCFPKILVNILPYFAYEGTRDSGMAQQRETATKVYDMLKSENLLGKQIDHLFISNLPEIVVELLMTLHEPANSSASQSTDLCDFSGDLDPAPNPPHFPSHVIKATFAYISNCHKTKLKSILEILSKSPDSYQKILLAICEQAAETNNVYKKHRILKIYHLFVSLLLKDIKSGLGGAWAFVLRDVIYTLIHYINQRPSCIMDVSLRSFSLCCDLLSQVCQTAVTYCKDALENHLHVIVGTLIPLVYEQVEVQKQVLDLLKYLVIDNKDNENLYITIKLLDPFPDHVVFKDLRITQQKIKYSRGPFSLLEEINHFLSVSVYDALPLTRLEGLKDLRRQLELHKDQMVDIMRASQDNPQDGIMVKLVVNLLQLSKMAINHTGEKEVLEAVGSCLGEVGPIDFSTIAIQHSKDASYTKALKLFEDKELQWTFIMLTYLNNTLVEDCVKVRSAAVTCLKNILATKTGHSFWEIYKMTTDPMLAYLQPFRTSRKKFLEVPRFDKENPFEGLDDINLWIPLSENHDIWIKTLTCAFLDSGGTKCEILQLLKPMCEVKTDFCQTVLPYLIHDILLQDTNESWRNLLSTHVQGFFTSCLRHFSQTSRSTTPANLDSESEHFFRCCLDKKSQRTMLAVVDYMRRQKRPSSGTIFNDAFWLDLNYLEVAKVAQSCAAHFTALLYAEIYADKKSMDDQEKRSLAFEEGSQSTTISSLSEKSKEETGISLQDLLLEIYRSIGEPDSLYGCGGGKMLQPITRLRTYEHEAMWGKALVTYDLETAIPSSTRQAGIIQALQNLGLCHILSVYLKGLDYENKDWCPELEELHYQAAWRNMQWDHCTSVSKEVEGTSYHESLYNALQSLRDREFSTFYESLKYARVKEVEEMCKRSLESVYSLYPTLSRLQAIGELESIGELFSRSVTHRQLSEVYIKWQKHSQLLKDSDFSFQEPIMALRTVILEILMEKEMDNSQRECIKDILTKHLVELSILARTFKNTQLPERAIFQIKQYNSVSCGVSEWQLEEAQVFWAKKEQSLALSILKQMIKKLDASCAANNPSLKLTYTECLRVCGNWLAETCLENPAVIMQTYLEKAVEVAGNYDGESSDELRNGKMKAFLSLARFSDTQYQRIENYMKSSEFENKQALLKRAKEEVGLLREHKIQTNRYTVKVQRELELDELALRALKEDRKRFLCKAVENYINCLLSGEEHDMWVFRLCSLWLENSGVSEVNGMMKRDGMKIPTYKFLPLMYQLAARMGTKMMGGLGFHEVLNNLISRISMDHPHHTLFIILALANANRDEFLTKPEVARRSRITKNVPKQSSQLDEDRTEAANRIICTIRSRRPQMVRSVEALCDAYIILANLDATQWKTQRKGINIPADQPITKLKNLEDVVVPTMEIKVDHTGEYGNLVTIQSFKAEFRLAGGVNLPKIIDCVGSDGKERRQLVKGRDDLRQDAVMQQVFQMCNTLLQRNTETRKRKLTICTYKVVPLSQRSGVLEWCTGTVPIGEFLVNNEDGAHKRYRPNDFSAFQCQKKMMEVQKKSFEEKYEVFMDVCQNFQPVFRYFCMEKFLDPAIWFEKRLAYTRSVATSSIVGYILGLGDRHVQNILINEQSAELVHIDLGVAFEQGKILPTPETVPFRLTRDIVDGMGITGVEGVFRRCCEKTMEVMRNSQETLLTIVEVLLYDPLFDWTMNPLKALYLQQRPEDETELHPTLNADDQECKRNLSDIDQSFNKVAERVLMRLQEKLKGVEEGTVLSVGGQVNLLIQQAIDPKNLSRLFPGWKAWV
Sequence of CHK1 (O14757 whole entry): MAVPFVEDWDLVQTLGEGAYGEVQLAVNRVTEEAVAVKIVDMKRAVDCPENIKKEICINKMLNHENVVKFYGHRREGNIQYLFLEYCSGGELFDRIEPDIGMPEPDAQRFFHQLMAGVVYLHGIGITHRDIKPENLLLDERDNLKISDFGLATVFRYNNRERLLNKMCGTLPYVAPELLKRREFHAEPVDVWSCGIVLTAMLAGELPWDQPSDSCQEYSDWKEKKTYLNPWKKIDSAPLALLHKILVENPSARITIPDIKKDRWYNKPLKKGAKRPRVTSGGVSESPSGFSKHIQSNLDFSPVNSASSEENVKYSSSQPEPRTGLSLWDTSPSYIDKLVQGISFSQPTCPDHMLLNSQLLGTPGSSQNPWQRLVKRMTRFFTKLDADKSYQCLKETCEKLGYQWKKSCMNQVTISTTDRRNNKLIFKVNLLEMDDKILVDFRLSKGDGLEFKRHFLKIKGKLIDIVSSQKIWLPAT
Sequence of PKM2 (P14618 whole entry): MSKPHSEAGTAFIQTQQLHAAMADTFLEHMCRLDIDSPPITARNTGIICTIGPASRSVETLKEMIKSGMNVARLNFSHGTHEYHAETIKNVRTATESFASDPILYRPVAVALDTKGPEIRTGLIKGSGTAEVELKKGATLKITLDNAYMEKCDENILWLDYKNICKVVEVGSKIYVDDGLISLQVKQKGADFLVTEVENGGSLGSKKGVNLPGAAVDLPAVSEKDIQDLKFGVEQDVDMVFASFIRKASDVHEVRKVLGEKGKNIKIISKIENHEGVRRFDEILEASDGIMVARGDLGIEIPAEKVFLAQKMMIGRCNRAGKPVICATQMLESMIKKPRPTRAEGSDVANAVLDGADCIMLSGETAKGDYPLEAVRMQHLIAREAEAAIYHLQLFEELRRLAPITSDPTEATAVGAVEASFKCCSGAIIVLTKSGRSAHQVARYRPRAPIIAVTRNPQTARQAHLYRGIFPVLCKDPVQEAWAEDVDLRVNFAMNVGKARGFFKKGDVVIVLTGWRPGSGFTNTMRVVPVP

On to `c1ccc2c(CNNc3ncnc4sc5c(c34)CCCC5)c[nH]c2c1` [B32B3], for which the IC50 against RSK2 is 8.6 µM; at CHK1, over 10 µM; on ATM, over 10 µM; on CSK1E, over 10 µM; at RSK3, over 10 µM; against AURKB, over 10 µM. In addition, the concentration for half-maximal inhibition (IC50) at CSNK1D, against PKM2, against EEF2K and on LCK was over 10 µM throughout. Besides, in [1], the “Reduction of H2AT120p at promoter and coding regions of target genes” value is listed as 70%. Further, in test [1], the “VprBP levels at promoter and coding regions of target genes” value is “did not alter”.
